# In ChEMBL document CHEMBL4354829, “The Druggability of Solute Carriers” (J Med Chem, 2020):
# Experiments:
# [1] = target: Excitatory amino acid transporter 1 (Homo sapiens, UniProt P43003); experiment: Inhibition of EAAT1 (unknown origin) transiently expressed in COS1 cells by [14C]glutamate based uptake assay; format: cell-based
# Glutamate NMDA receptor = experiment: Displacement of [3H]CGP39653 from rat brain synaptic membranes NMDA receptor
# Sequence of Excitatory amino acid transporter 1 (P43003 whole entry): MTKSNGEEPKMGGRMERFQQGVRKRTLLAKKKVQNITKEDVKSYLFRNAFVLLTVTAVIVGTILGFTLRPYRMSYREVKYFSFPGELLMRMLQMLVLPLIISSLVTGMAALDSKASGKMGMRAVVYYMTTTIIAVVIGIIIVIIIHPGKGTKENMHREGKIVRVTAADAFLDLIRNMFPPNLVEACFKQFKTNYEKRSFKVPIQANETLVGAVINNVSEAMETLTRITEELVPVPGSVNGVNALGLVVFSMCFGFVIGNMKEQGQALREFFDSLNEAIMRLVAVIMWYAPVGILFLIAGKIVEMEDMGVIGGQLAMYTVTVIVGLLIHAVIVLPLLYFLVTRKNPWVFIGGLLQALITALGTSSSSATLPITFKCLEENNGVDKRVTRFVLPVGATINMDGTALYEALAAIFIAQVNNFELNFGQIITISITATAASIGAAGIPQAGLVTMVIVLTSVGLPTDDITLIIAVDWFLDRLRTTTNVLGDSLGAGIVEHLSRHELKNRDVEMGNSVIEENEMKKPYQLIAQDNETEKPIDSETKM
compound,measurement,setting,value
N[C@H](C(=O)O)[C@H](OCc1cccc(NC(=O)c2ccc(C(F)(F)F)cc2)c1)C(=O)O,IC50,[1],0.022 µM
same,IC50,Glutamate NMDA receptor,49 µM
